Results from patent publication US4368194A, “Pharmacologically active amine boranes” (The United States of America as represented by the …, priority 1981, dated 1983).
Read-outs that look alike come from different tables or passages of the source.

Legend:
cAMP levels in PMNs = experiment: Cyclic-3',5'-adenosine monophosphate levels (cAMP) in PMNs; type: cell-based; conditions: for activity at 5 µmol / activation at 5 µmol: 1 h; for activation at 5 µmol: read-out: increase of cyclic adenosine monophosphate levels in PMNs
Method: (§1) Polymorphonuclear neutrophils (PMNs) were collected from the peritoneal cavity four hr after the injection of 35 ml of 0.5% oyster glycogen in isotonic saline (Orange et al., J. Exp. Med., 127, 767 1968). The PMNs were centrifuged down at 800 g for 20 min, washed, and resuspended in minumen essential medium (MEM) with 10% fetal calf serum pH 7.4.
Isolated PMNs were incubated with test drugs at 5μ moles for 1 hr at 37° C. in MEM at pH 7.4. The reaction was stopped with 6% trichloroacetic acid. The cyclic-3',5'-adenosine monophosphate levels were determined by the radioimmunoassay of Gilman, Proc. Natl. Acad. Sci. (USA), 67, 305 (1970), using 3H(G)-cyclic-3',5'-adenosine monophosphate (39.8 Cu/m mol). Results were calculated in p mole/10^7 PMNs cells.

liver mitochondria [1] = experiment: Oxidative phosphorylation, succinate as substrate; type: biochemical, rats; conditions: 5 μmoles; for Oxidative Phosphorylation Succinate State 3: ADP stimulated respiration; for Oxidative Phosphorylation Succinate State 4: basal respiration
Method: (§2) Basal and adenosine diphosphate stimulated respiration on 10% liver homogenates was measured using succinate or αketoglutarate as substrate. See Glatt, et al., supra. The reaction vessel contained sucrose 55μ moles, KCl 22μ moles, K2 HPO4 22μ moles, test compounds at 5μ moles in 1% CMC and sodium succinate 90μ moles or αketoglutarate 60μ moles in a total volume of 1.8 ml. […] The rate of respiration was calculated at μl of O2 consumed/hr/mg wet weight of liver.

liver mitochondria [2] = experiment: Oxidative phosphorylation, α-ketoglutarate as substrate; type: biochemical, rats; conditions: 5 μmoles; for Oxidative Phosphorylation α Ketoglutarate State 3: ADP stimulated respiration; for Oxidative Phosphorylation α Ketoglutarate State 4: basal respiration
Method: as §2

Sprague Dawley rats = experiment: Red and white blood cell counts after 3 weeks dosing; type: in vivo
Excerpt: Hematocrits were also obtained.

Acid phosphatase [3] = experiment: Lysosomal free acid phosphatase activity, PMNs; type: cell-based; conditions: 5 μmoles; for PMNs % Free Acid Phosphatase Activity, pH5: in vitro, 60 min
Method: as §1
(§3) Acid phosphatase activity (Gianetto et al., Biochem J., 59, 433 1955) was carried out by incubating with 0.1 Mβ-glycerol phosphate in 0.1 M acetate, pH 5.0 with 5 μmoles of test drugs in 1% carboxymethylcellulose (CMC) for 20 min with liver homogenate and 60 min with resuspended PMNs. Lysosome enzymes were released by 0.02% alkyl phenoxy polyethoxy ethanol-100 to obtain the total enzymatic activity. The reaction was stopped with 10% trichloroacetic acid and the solution centrifuged. Aliquots of the supernatant were assayed for inorganic phophate content by the method of Chen et al., Anal Chem., 28, 1756 (1956). Percent free acid phosphatase was calculated. Cathepsin activity was determined in an analagous manner except the substrate used was 2% azocasein (Schleuning et al., Methods in Enzymology, XLV, 330 1976) in 0.1 M acetate buffer pH 5.0. The supernatant was assayed for acid soluble peptide fragments at 366 nm. Percent free cathepsin activity was calculated.

Cathepsin [4] = experiment: Lysosomal free cathepsin activity, liver homogenate; type: biochemical, rats; conditions: 5 μmoles; for Liver % Free Cathepsin Activity, pH5: in vitro, 20 min
Method: (§4) Lysosomal enzymatic assays - Sprague Dawley rats (about 160 g) were sacrificed, the liver excised, and a 10% homogenate (4x) in 0.25 M sucrose and 0.001 M (ethylenedinitrilo) tetra acetic acid, ph 7.2 was prepared.
as §3

[5] = biological target: T1, prostaglandin synthetase from beef seminal vesicle (Bos taurus, UniProt O62664); experiment: Prostaglandin synthetase activity; type: biochemical; conditions: 10^-6 M; for activity at 1 µM: 1 h, read-out: Prostaglandin Synthesis; for inhibition at 1 µM: read-out: inhibition of prostaglandin synthesis
T1 construct: purchased; host or cells: beef seminal vesicle
T1 sequence (O62664 25-600): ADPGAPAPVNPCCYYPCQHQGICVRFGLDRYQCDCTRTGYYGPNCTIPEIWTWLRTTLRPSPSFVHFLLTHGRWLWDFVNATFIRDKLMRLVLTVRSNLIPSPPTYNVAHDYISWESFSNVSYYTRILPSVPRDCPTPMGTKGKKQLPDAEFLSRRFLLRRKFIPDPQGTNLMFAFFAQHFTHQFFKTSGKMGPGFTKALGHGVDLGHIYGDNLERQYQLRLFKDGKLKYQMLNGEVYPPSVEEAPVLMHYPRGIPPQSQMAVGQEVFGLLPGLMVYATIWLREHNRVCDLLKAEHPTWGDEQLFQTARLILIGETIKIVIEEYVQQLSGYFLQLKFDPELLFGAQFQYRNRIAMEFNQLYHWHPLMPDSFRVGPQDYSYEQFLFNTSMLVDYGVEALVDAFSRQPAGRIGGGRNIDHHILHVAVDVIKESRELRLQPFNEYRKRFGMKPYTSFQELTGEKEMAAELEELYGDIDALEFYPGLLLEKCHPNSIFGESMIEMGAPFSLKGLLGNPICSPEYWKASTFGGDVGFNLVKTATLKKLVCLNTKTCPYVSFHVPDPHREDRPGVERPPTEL
Method: After 1 hr at 37° C. the reaction was stopped with 1 N HCl and extracted with ethyl ether and evaporated. […] The plates were dried and developed in iodine vapor and with the use of prostaglandin standards the appropriate areas were scraped and counted for ^3 H content. Indometacin was used as a standard at 10^-4 M concentration. Test drugs were used at 10^-6 M.

Cathepsin [6] = experiment: Lysosomal free cathepsin activity, PMNs; type: cell-based; conditions: 5 μmoles; for PMNs % Free Cathespin Activity, pH5: in vitro, 60 min
Method: as §1, §3

CF1 male mice = experiment: Writhing reflex (acetic acid); type: in vivo; conditions: for Writhing Reflex: mice; for inhibition of the writhing reflex: text summary of Table II
Method: CF1 male mice were administered test drugs at 20 mg/kg intraperitoneally 20 min (see Hendershat et al., J. Pharmacol Exp. Ther. 125, 237 1959) prior to the administration of 0.5 ml of 0.6% acetic acid (Vingar et al., European J. PHarmacol, 37, 23 1976). After 5 min the number of stretches, characterized by repeated contractures of the abdominal musculature accompanied by extension of the hind limbs, was counted for the next 10 min. The control mice had 78 stretch reflexes per 10 min.

Acid phosphatase [7] = experiment: Lysosomal free acid phosphatase activity, liver homogenate; type: biochemical, rats; conditions: 5 μmoles, in vitro; 20 min
Method: as §4, §3

[8] = test system: carrageenan induced edema in mouse foot pads; experiment: Anti-inflammatory screen (carrageenan induced foot edema); type: in vivo, mice; conditions: for Anti-inflammatory Screen: mice; for inhibition of the carrageenan induced edema in mouse foot pads: text summary of Table II
Method: CF1 male mice (about 30 g) were administered test drugs at 10 mg/kg in 0.05% polysorbate .80-water intraperitoneally 3 hr and 30 min prior to 0.05 ml of 2% carrageenan in 0.9% saline injected into the plantar surface of the right hind foot. Saline injected into the left hind foot served as a base line. After 3 hr, both feet were excised at the tibiotarsal (ankle) joint according to the modified (Roszkowski et al., J. Pharm. Exp. Ther., 179, 114 1971) method of Winter, resulting in an 87 mg net increase in the weight of the control animals' feet.

in vivo = conditions: mouse
[9] = pH 7.4, 5 μmoles, in vitro, read-out: PMNs cAMP Level
[10] = dosing for three weeks intraperitoneally, rats
[11] = pH 7.4, read-out: PMNs cAMP Level

Molecule	activity at 5 µmol (cAMP levels in PMNs; [9]) [%]	Oxidative Phosphorylation Succinate State 3 (liver mitochondria [1]) [% Control]	Oxidative Phosphorylation Succinate State 4 (liver mitochondria [1]) [% Control]	Oxidative Phosphorylation α Ketoglutarate State 3 (liver mitochondria [2]) [% Control]	Oxidative Phosphorylation α Ketoglutarate State 4 (liver mitochondria [2]) [% Control]	alteration of the red blood or white blood cell count/cu mm (Sprague Dawley rats; [10])	PMNs % Free Acid Phosphatase Activity, pH5 (Acid phosphatase [3]) [% Control]	Liver % Free Cathepsin Activity, pH5 (Cathepsin [4]) [% Control]	activity at 1 µM [5] [%]	PMNs % Free Cathespin Activity, pH5 (Cathepsin [6]) [% Control]	Writhing Reflex (CF1 male mice; 20 mg/kg intraperitoneally) [% Control]	inhibition of the writhing reflex (CF1 male mice) [%]	Liver % Free Acid Phosphatase Activity, pH5 (Acid phosphatase [7]) [% Control]	Anti-inflammatory Screen ([8]; 10 mg/kg × 2 intraperitoneally) [% Control]	inhibition of the carrageenan induced edema in mouse foot pads [8]	activity at 5 µmol (cAMP levels in PMNs; [11]) [%]	activation at 5 µmol (cAMP levels in PMNs) [%]	both states 3 and 4 respiration with succinate (liver mitochondria [1])	inhibition of free proteolytic cathepsin activity of liver (Cathepsin [4])	LD50 (in vivo) [mg/kg]	other results
[BH3-][NH+]1CCOCC1 [Compound II, O(CH2 CH2)2 NH.BH3]	107	66 ± 10	115 ± 15	50 ± 11	97 ± 29	no alteration	79 ± 5	107 ± 6	100 ± 5	93 ± 7	15	80	75 ± 8	55	at least 40%	–	–	–	–	–	–
C[N+]1([BH2-]C#N)CCOCC1 [XIV, O(CH2 CH2)2 N(CH3).BH2 CN]	–	36 ± 5	62 ± 10	51 ± 16	140 ± 47	no alteration	50 ± 3	13 ± 5	38 ± 3	37 ± 5	–	–	68 ± 7	–	–	165	65	inhibited	at least 75%	23	inhibition of free acid phosphatase activity in PMNs (Acid phosphatase [3]): 50%; Writhing Reflex (CF1 male mice; 1/3 dose (of 20 mg/kg)): 78 % Control; Anti-inflammatory Screen ([8]; 1/3 dose (of 10 mg/kg × 2)): 91 % Control
C[N+](C)([BH2-]C#N)CCC#N [XIX, 3-Dimethylaminopropionitrile-cyanoborane]	–	24 ± 7	43 ± 16	33 ± 8	105 ± 33	no alteration	100 ± 9	15 ± 3	53 ± 7	17 ± 5	89	–	66 ± 4	74	–	199	99	inhibited	at least 75%	140	inhibition at 1 µM [5]: > 30%; inhibition of PMN cathepsin activity (Cathepsin [6]): at least 82%
N#C[BH2-][n+]1ccccc1 [XV, pyridinecyanoborane]	110	57 ± 16	124 ± 16	52 ± 15	112 ± 42	–	57 ± 4	57 ± 4	58 ± 3	49 ± 7	80	–	79 ± 3	–	–	–	–	–	–	25	inhibition at 1 µM [5]: > 30%; Anti-inflammatory Screen ([8]; 1/3 dose (of 10 mg/kg × 2)): 83 % Control
N#C[BH2-][NH2+]CC[NH2+][BH2-]C#N [XX, Ethylenediamine-bis(cyanoborane)]	–	10 ± 5	13 ± 5	25 ± 8	50 ± 18	–	100 ± 10	80 ± 7	81 ± 5	57 ± 2	95	–	77 ± 8	87	–	28	–	inhibited	–	> 150	both states 3 and 4 respiration with α-ketoglutarate (liver mitochondria [2]): inhibited
[Na{H3 N.BH2 (CN)}6 ]I [Compound X]	–	–	–	–	–	–	–	–	–	0 ± 3	12	80	–	57	at least 40%	–	–	–	–	–	PMNs cAMP Level (cAMP levels in PMNs; 5 μmoles, in vitro, 60 min): 361 % Control; increase of cyclic adenosine monophosphate levels in PMNs (cAMP levels in PMNs; in vitro incubation, 5 μmoles): 261%; alteration of the red blood or white blood cell count/cu mm (Sprague Dawley rats; rat, in vivo, ip): no alteration; Prostaglandin Synthesis ([5]; 60 min, 1 µM): 42 ± 5 % Control
